Data on two substances can be found in PMC8466300, “Investigating the Central Nervous System Disposition of Actinomycin D: Implementation and Evaluation of Cerebral Microdialysis and Brain Tissue Measurements Supported by UPLC-MS/MS Quantification” (Pharmaceutics, 2021).

The data set in a line: Reverse-phase UPLC retention relative to actinomycin D. Type of data set: physicochemical. Particulars: Peptide BEH C18 300 Å, gradient 40–100% ACN + 0.1% FA, 60 °C. As to the method: The injected sample volume was 20 µL.
For chromatography optimization we tested reverse phase columns (C18 and C4) due to actinomycin D´s high lipophilicity. We used reverse phase material with a large pore width of 300 Å because large pore widths usually foster optimal mass transfer kinetics for macromolecules. Chromatographic peak shape and separation performed better on the C18 column. In accordance with the high lipophilicity of actinomycin D, a gradient from 40–100% eluent B was found optimal and yielded peaks with a width at baseline of 6 s (Figure 2).

For the substance 7-amino actinomycin D, the “shift in reverse-phase retention relative to actinomycin D” value is given as “large hydrophilic shift in retention time”.

Actinomycin C: the “shift in reverse-phase retention relative to actinomycin D” value is “only a minimal lipophilic shift”.
